Test systems include A549 NSCLC; OVCAR-4 ovarian; 786-0 renal; SF-268 CNS; SF-295 CNS; MDA-MB-231 breast; CAKI-1 renal; HCT-15 colon; PC-3 prostate; IGROV1 ovarian.
Experiment in all cases: growth of human tumour cells (NCI), 48 h

Structures are written as SMILES.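 Cells were grown in 96-well plates and exposed to each compound for 48 hours at five concentrations; endpoints were interpolated linearly between bracketing concentrations, or set to the highest concentration if not reached. The concentration for full growth arrest is given as TGI.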

Turning to `Cc1ccc(S(=O)(=O)NC(=O)Nc2c(S(N)(=O)=O)cc(S(N)(=O)=O)c(Cl)c2Cl)cc1`, the TGI in the assay with A549 NSCLC, in the assay on OVCAR-4 ovarian, in the assay with 786-0 renal, with SF-268 CNS, in the assay with SF-295 CNS and in the assay on MDA-MB-231 breast was greater than 100 µM throughout. For the same compound, the TGI with CAKI-1 renal, in the assay on HCT-15 colon, with PC-3 prostate and with IGROV1 ovarian was greater than 100 µM throughout.
Take `C=C1C(=O)OC2C1CCC(=C)C1CC(O)C(=C)C12` (stereo not given): the TGI was 55.7 µM with A549 NSCLC; 33.7 µM in the assay on OVCAR-4 ovarian; 19.6 µM in the assay with 786-0 renal; 31.7 µM with SF-268 CNS; greater than 100 µM in the assay on SF-295 CNS; 31.6 µM in the assay on MDA-MB-231 breast. The TGI in the assay on CAKI-1 renal was 9.78 µM; in the assay on HCT-15 colon, 25.1 µM; with PC-3 prostate, 28 µM; with IGROV1 ovarian, 28 µM.
Turning to `OC1(c2ccccc2)CC2CCC(C1)N2CCCC(O)(c1ccccc1)c1ccccc1` (stereo not given), the TGI in the assay on A549 NSCLC is 34.4 µM; in the assay with OVCAR-4 ovarian it was greater than 100 µM; in the assay with 786-0 renal, 25.6 µM; in the assay on SF-268 CNS, 30.1 µM; in the assay with SF-295 CNS, 10.6 µM; with MDA-MB-231 breast, 43.9 µM. For the same compound, the TGI is 27.1 µM in the assay with CAKI-1 renal, 27.3 µM with HCT-15 colon, 16.2 µM in the assay on PC-3 prostate and 29.9 µM in the assay on IGROV1 ovarian.
Consider `CC(=O)N1C(C(=O)NN2CCOCC2)CSC1c1ccccc1` (stereo not given), for which the TGI in the assay with A549 NSCLC, in the assay with OVCAR-4 ovarian, in the assay on 786-0 renal, in the assay with SF-268 CNS, with SF-295 CNS and in the assay with MDA-MB-231 breast was greater than 100 µM throughout. Besides, the TGI in the assay on CAKI-1 renal, with HCT-15 colon, with PC-3 prostate and in the assay on IGROV1 ovarian was greater than 100 µM each time.
